# Test results published in patent publication US6670363B1, “Azole compounds as therapeutic agents for fungal infections” (Ranbaxy Laboratories Limited, priority 2000, dated 2003).
# Experiments:
# Format in all cases: cell-based
# A. fumigatus s 1008 = assay: In vitro MIC, NCCLS M38P broth method (RPMI 1640/MOPS pH7), Aspergillus fumigatus; details: A. fumigatus strain 1008
# Candida = assay: In vitro MIC, NCCLS M27A, Candida species; set-up: MIC, Candida albicans 1.549 / MIC, Candida albicans Y-01-19 / MIC, C. krusei 766-1 / MIC, C. krusei Q. C / MIC, Candida tropicalis ATCC / MIC, C. glabrata 90030: unit not given beside the values; MIC, Candida albicans A 26 / MIC, C. parapsilosis Q. C.: unit not given here; details: for MIC, C. glabrata 90030: C. glabrata strain 90030; for MIC, C. krusei 766-1: C. krusei strain 766-1; for MIC, C. krusei Q. C: C. krusei strain Q. C; for MIC, C. parapsilosis Q. C.: C. parapsilosis strain Q. C.; for MIC, Candida albicans 1.549: Candida albicans strain 1.549; for MIC, Candida albicans A 26: Candida albicans strain A 26; for MIC, Candida albicans Y-01-19: Candida albicans strain Y-01-19
# Histoplasma capsulatum = system: Histoplasma capsulatum
# Cryptococcus neoformans = assay: In vitro MIC, NCCLS M27A, Cryptococcus neoformans; set-up: MIC, C. neoformans I: unit not given beside the values; MIC, C. neoformans M 106: unit not given here; details: for MIC, C. neoformans I: C. neoformans strain I; for MIC, C. neoformans M 106: C. neoformans strain M 106
SMILES,"MIC, A. fumigatus 1008 (A. fumigatus s 1008)","MIC, C. glabrata 90030 (Candida)","MIC, C. krusei 766-1 (Candida)","MIC, C. krusei Q. C (Candida)","MIC, C. parapsilosis Q. C. (Candida)","MIC, Candida albicans 1.549 (Candida)","MIC, Candida albicans A 26 (Candida)","MIC, Candida albicans Y-01-19 (Candida)","MIC, Candida tropicalis ATCC (Candida)","MIC, H. capsulatum (Histoplasma capsulatum) [µg/mL]","MIC, C. neoformans I (Cryptococcus neoformans)","MIC, C. neoformans M 106 (Cryptococcus neoformans)"
"COc1ccccc1N1CCN(c2ccc(-n3c(C)nn(CC(O)(Cn4cncn4)c4ccc(F)cc4F)c3=O)cc2)CC1 (stereo not drawn) [Compound 35, 2-[2-(2,4-Difluorophenyl)-2-hydroxy-3-(1H-1,2,4-triazol-1-yl)propyl]-4-{4-[4-(2-methoxyphenyl)-1-piperazinyl]phenyl}-3-(2H,4H)-5-methyl-1,2,4-triazolone]",>12.5,12.50,12.50,3.12,0.20,1.56,<0.02,3.12,<0.02,0.2,0.80,3.12
"C[C@@H](n1ncn(-c2ccc(N3CCN(c4ccc([N+](=O)[O-])cc4[N+](=O)[O-])CC3)cc2)c1=O)[C@](O)(Cn1cncn1)c1ccc(F)cc1F [Compound 3, 2-{[1R2R/1S2S]-2-(2,4-Difluorophenyl)-2-hydroxy-1-methyl-3-(1H-1,2,4-triazol-1-yl)propyl}-4-{4-[4-(2,4-dinitrophenyl)-1-piperazinyl]phenyl}-3-(2H,4H)-1,2,4-triazolone]",0.25,0.25,1.00,0.50,<0.03,0.12,<0.03,0.50,<0.03,< 0.03,<0.03,<0.03
"Cc1ccc(Cl)cc1N1CCN(c2ccc(-n3cnn([C@H](C)[C@@](O)(Cn4cncn4)c4ccc(F)cc4F)c3=O)cc2)CC1 [Compound 22, 2-{[1R2S/1S2R]-2-(2,4-Difluorophenyl)-2-hydroxy-1-methyl-3-(1H-1,2,4-triazol-1-yl)propyl}-4-{4-[4-(5-chloro-2-methylphenyl)-1-piperazinyl]phenyl}-3-(2H,4H)-1,2,4-triazolone]",>16,1.00,8.00,1.00,0.25,2.00,<0.03,1.00,<0.03,> 16,0.12,0.06
"O=c1n(-c2ccc(N3CCN(c4ccc(F)cc4Cl)CC3)cc2)cnn1CC(O)(Cn1cncn1)c1ccc(F)cc1F (stereo not drawn) [Compound 58, 2-[2-(2,4-Difluorophenyl)-2-hydroxy-3-(1H-1,2,4-triazol-1-yl)propyl]-4-{4-[4-(2-chloro-4-fluorophenyl)-1-piperazinyl]phenyl}-3-(2H,4H)-1,2,4-triazolone]",2.00,0.25,1.00,0.25,<0.03,0.03,<0.03,0.03,<0.03,0.004,<0.03,<0.03
"COc1ccc(N2CCN(c3ccc(-n4cnn([C@H](C)[C@@](O)(Cn5cncn5)c5ccc(F)cc5F)c4=O)cc3)CC2)cc1 [Compound 14, 2-{[1R2S/1S2R]-2-(2,4-Difluorophenyl)-2-hydroxy-1-methyl-3-(1H-1,2,4-triazol-1-yl)propyl}-4-{4-[4-(4-methoxyphenyl)-1-piperazinyl]phenyl}-3-(2H,4H)-1,2,4-triazolone]",>16,2.00,>16,16.0,0.06,2.00,<0.03,2.00,<0.03,0.12,0.50,<0.03
C[C@@H](n1ncn(-c2ccc(N3CCN(c4ccccc4)CC3)cc2)c1=O)[C@](O)(Cn1cncn1)c1ccc(F)cc1F [Compound 5],0.50,1.00,0.50,0.12,<0.03,2.00,<0.03,0.12,<0.03,< 0.03,<0.03,<0.03
"Cc1ccc(Cl)cc1N1CCN(c2ccc(-n3cnn([C@H](C)[C@](O)(Cn4cncn4)c4ccc(F)cc4F)c3=O)cc2)CC1 [Compound 21, 2-{[1R2R/1S2S]-2-(2,4-Difluorophenyl)-2-hydroxy-1-methyl-3-(1H-1,2,4-triazol-1-yl)propyl}-4-{4-[4-(5-chloro-2-methylphenyl)-1-piperazinyl]phenyl}-3-(2H,4H)-1,2,4-triazolone]",1.00,0.50,0.50,0.25,0.06,0.25,<0.03,0.25,<0.03,0.12,<0.03,<0.03
"COc1ccc(F)cc1N1CCN(c2ccc(-n3c(C)nn([C@H](C)[C@@](O)(Cn4cncn4)c4ccc(F)cc4F)c3=O)cc2)CC1 [Compound 28, 2-{[1R2S/1S2R]-2-(2,4-Difluorophenyl)-2-hydroxy-1-methyl-3-(1H-1,2,4-triazol-1-yl)propyl}-4-{4-[4-(2-methoxy-5-fluorophenyl)-1-piperazinyl]phenyl}-3-(2H,4H)-5-methyl-1,2,4-triazolone]",>16,4.00,>16,16.0,0.25,8.00,<0.03,4.00,<0.03,2,0.25,1.00
"Cc1nn([C@H](C)[C@@](O)(Cn2cncn2)c2ccc(F)cc2F)c(=O)n1-c1ccc(N2CCN(c3ccccc3F)CC2)cc1 [Compound 26, 2-{[1R2S/1S2R]-2-(2,4-Difluorophenyl)-2-hydroxy-1-methyl-3-(1H-1,2,4-triazol-1-yl)propyl}-4-{4-[4-(2-fluorophenyl)-1-piperazinyl]phenyl}-3-(2H,4H)-5-methyl-1,2,4-triazolone]",8.00,1.00,2.00,0.50,<0.03,0.25,<0.03,1.00,<0.03,0.12,<0.03,<0.03
"Cc1ccc(N2CCN(c3ccc(-n4cnn([C@H](C)[C@@](O)(Cn5cncn5)c5ccc(F)cc5F)c4=O)cc3)CC2)cc1C [Compound 24, 2-{[1R2S/1S2R]-2-(2,4-Difluorophenyl)-2-hydroxy-1-methyl-3-(1H-1,2,4-triazol-1-yl)propyl}-4-{4-[4-(3,4-dimethylphenyl)-1-piperazinyl]phenyl}-3-(2H,4H)-1,2,4-triazolone]",>16,2.00,>16,16.0,0.25,2.00,<0.03,16.00,<0.03,0.25,0.50,1.00
"COc1ccc(N2CCN(c3ccc(-n4cnn([C@H](C)[C@](O)(Cn5cncn5)c5ccc(F)cc5F)c4=O)cc3)CC2)cc1 [Compound 13, 2-{[1R2R/1S2S]-2-(2,4-Difluorophenyl)-2-hydroxy-1-methyl-3-(1H-1,2,4-triazol-1-yl)propyl}-4-{4-[4-(4-methoxyphenyl)-1-piperazinyl]phenyl}-3-(2H,4H)-1,2,4-triazolone]",0.25,0.50,0.50,0.12,<0.03,0.12,<0.03,0.25,<0.03,0.06,<0.03,<0.03
